In paper PMC11314561, “Design and Synthesis of Novel Aminoindazole-pyrrolo[2,3-b]pyridine Inhibitors of IKKα That Selectively Perturb Cellular Non-Canonical NF-κB Signalling” (Molecules, 2024):

Legend:
Assay in all cases: kinase panel
Assay type in all cases: biochemical
JNK3(h) = JNK3(h) (Homo sapiens, UniProt P53779)
From the text: (§1) We profiled three compounds from the series across the kinome (Table S1).
(§2) Ta b l e S1. The % inhibition of compounds 4, 5r [SU1261], and 6g [SU1349] against a
(§3) panel of kinase enzymes. We proϐiled three compounds from the series across 231
(§4) kinases. For SU1349, given its structural similarity with SU1261, we selected 98 from the
(§5) Tested kinase % inhibiƟon

CaMKIIγ(h) = CaMKIIγ(h) (Homo sapiens, UniProt Q13555)
From the text: as §1, §2, §3, §4, §5

Flt3(h) = biological target: T1, Flt3(h) (Homo sapiens, UniProt P36888)
T1 sequence (P36888 27-993): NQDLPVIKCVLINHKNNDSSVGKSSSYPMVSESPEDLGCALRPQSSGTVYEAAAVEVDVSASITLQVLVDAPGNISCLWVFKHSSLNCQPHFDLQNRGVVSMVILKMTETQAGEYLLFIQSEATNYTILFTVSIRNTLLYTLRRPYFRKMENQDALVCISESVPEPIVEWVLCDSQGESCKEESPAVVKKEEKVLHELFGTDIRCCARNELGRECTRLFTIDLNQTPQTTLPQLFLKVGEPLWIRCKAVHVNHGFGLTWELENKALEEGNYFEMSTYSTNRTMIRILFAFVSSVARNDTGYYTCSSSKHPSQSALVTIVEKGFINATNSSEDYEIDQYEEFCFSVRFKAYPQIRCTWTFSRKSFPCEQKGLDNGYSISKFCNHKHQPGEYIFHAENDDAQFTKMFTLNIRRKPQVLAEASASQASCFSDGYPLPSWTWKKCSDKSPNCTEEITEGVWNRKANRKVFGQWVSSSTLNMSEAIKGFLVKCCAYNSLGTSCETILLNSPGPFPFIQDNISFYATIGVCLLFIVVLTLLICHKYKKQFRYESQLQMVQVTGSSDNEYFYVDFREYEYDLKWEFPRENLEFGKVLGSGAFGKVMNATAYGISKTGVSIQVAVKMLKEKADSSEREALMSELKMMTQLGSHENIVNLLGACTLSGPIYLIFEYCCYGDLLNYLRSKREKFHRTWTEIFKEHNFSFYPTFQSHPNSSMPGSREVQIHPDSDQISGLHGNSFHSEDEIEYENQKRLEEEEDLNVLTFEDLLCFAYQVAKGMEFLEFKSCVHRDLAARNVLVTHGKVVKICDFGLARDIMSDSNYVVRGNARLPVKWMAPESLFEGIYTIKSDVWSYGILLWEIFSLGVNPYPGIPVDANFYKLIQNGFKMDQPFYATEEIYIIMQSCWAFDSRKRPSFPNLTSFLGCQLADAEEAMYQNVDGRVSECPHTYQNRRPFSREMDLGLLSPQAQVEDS
From the text: as §1, §2, §3, §4, §5

CaMKIIδ(h) = CaMKIIδ(h) (Homo sapiens, UniProt Q13557)
From the text: as §1, §2, §3, §4, §5

TAO1(h) = biological target: T2, TAO1(h) (Homo sapiens, UniProt Q7L7X3)
T2 sequence (Q7L7X3 1-1001): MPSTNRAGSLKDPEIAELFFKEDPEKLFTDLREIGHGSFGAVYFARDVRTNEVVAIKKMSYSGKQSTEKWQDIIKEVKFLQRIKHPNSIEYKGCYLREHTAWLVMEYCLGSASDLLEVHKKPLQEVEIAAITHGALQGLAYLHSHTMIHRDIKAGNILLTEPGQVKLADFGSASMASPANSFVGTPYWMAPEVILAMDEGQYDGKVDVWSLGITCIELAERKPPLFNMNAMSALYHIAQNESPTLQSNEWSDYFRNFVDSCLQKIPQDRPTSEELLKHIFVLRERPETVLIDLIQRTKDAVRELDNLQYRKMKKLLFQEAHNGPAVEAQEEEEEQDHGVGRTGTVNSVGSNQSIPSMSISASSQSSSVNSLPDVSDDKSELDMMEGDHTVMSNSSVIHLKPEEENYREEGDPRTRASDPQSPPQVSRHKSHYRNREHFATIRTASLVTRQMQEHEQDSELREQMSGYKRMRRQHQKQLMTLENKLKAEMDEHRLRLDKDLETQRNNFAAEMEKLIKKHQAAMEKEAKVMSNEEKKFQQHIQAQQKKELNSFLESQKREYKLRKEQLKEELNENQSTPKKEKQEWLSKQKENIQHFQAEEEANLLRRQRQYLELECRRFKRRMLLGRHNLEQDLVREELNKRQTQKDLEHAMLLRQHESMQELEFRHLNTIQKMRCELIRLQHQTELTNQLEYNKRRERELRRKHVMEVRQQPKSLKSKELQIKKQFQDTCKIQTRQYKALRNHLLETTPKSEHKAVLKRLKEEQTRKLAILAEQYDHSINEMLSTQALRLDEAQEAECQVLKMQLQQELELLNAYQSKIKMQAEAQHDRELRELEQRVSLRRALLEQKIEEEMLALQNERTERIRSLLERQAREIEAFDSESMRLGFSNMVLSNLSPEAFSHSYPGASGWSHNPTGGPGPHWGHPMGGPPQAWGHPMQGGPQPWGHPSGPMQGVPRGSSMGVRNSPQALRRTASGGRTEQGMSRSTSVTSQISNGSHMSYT
From the text: as §1, §2, §3, §4, §5

Arg(h) = Arg(h) (Homo sapiens, UniProt P42684)
From the text: as §1, §2, §3, §4, §5

Abl(h) = Abl(h) (Homo sapiens, UniProt P00519)
From the text: as §1, §2, §3, §4, §5

Fes(h) = Fes(h) (Homo sapiens, UniProt P07332)
From the text: as §1, §2, §3, §4, §5

FGFR3(h) = FGFR3(h) (Homo sapiens, UniProt P22607)
From the text: as §1, §2, §3, §4, §5

FGFR1(h) = FGFR1(h) (Homo sapiens, UniProt P11362)
From the text: as §1, §2, §3, §4, §5

ROCK-I(h) = ROCK-I(h) (Homo sapiens, UniProt Q13464)
From the text: as §1, §2, §3, §4, §5

MAPKAP-K2(h) = MAPKAP-K2(h) (Homo sapiens, UniProt P49137)
From the text: as §1, §2, §3, §4, §5

CDK5/p25(h) = CDK5/p25(h) (Homo sapiens, UniProt Q00535)
From the text: as §1, §2, §3, §4, §5

Sequence of CaMKIIδ(h) (Q13557 whole entry): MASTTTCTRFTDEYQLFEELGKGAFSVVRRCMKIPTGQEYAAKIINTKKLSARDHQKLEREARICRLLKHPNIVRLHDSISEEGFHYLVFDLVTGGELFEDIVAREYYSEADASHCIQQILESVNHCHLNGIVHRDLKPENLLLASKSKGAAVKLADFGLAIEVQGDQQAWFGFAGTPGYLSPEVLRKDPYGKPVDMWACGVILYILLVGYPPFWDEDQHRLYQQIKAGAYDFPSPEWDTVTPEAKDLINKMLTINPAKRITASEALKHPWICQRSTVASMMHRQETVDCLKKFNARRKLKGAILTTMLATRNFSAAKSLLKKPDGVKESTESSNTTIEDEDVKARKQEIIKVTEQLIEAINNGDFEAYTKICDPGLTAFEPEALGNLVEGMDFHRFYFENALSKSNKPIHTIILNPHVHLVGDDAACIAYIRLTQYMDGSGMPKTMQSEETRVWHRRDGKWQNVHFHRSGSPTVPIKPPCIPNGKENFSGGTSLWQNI
Sequence of Fes(h) (P07332 whole entry): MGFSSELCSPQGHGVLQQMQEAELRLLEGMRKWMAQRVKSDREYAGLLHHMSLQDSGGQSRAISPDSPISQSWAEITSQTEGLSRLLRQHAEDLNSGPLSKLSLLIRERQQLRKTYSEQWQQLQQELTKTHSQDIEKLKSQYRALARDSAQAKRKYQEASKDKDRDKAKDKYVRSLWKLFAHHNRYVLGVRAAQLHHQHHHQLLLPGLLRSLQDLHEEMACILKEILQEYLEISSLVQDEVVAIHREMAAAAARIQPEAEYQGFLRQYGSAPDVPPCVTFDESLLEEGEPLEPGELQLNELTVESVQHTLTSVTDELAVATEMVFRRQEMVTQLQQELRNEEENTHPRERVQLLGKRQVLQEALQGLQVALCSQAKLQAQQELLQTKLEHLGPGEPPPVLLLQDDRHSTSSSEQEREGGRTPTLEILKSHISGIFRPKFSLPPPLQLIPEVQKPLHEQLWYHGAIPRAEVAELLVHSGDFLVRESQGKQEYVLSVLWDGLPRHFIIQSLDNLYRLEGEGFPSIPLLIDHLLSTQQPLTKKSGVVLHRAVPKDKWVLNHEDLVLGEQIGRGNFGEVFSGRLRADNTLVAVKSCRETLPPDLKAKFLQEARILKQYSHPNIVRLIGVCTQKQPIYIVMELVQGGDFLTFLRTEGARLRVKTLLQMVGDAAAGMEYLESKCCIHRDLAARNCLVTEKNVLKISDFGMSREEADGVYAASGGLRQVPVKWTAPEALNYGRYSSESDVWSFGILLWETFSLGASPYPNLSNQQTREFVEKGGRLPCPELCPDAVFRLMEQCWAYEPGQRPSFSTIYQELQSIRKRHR
Sequence of CaMKIIγ(h) (Q13555 whole entry): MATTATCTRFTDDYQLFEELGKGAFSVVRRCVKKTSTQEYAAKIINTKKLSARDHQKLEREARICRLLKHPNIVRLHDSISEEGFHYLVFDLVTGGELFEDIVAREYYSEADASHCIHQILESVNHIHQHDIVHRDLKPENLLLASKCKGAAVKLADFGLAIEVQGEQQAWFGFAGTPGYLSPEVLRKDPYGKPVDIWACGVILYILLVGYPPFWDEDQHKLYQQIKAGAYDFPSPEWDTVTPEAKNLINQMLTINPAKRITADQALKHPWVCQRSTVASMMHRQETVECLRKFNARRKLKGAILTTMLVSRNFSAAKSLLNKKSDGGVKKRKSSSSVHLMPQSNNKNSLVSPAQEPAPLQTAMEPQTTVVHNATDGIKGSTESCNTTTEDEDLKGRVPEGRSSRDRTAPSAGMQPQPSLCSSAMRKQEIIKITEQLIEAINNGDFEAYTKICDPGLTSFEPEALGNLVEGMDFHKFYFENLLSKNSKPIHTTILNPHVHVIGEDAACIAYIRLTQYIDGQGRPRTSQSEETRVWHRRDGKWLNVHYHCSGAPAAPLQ
Sequence of FGFR3(h) (P22607 23-806): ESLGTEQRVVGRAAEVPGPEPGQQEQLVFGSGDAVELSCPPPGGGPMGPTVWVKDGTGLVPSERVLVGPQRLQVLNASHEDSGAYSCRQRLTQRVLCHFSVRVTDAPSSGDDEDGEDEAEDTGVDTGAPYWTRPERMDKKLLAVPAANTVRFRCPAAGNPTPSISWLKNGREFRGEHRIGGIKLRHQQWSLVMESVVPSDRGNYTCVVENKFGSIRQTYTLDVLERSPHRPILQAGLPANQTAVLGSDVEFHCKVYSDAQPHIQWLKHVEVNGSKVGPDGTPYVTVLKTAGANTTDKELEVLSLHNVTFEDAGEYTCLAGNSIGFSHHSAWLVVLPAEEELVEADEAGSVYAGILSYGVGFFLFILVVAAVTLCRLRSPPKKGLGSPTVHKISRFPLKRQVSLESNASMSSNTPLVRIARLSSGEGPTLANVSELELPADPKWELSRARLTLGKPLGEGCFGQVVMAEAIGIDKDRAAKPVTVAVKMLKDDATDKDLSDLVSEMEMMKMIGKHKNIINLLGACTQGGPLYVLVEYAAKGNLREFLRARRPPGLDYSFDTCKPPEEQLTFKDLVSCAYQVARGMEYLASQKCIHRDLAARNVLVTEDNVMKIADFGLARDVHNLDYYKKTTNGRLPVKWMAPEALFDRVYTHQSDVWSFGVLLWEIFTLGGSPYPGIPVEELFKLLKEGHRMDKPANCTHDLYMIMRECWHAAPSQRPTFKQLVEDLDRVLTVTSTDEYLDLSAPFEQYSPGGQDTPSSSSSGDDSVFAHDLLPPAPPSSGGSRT
Sequence of Abl(h) (P00519 whole entry): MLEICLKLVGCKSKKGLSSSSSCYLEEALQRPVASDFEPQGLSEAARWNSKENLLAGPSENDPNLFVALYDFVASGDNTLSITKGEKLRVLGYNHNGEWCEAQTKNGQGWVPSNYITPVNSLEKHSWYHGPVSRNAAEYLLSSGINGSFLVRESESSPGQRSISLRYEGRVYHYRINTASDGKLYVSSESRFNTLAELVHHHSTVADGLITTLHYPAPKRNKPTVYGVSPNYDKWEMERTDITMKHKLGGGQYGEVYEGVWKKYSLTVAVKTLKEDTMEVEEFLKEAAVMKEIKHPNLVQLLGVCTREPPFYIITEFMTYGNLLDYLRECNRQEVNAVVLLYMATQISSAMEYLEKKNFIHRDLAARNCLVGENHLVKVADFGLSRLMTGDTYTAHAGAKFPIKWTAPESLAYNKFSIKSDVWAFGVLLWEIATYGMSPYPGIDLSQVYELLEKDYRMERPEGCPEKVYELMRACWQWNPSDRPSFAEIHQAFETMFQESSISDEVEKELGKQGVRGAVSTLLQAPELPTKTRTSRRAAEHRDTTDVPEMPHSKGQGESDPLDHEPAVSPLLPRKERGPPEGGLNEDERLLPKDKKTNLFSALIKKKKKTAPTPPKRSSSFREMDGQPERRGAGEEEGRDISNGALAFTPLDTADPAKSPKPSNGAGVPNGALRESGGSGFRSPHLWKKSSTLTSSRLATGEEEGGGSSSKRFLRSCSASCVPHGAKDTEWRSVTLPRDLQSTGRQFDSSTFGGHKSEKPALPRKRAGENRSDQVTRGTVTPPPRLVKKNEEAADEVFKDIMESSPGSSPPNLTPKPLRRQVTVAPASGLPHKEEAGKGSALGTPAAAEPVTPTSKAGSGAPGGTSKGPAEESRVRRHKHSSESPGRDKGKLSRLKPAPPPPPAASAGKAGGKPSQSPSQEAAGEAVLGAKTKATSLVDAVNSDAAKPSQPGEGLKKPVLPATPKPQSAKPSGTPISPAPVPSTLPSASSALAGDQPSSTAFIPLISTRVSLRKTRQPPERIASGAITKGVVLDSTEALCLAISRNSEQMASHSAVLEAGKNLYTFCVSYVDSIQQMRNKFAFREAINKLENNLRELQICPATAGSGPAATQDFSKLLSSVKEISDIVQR
Sequence of MAPKAP-K2(h) (P49137 whole entry): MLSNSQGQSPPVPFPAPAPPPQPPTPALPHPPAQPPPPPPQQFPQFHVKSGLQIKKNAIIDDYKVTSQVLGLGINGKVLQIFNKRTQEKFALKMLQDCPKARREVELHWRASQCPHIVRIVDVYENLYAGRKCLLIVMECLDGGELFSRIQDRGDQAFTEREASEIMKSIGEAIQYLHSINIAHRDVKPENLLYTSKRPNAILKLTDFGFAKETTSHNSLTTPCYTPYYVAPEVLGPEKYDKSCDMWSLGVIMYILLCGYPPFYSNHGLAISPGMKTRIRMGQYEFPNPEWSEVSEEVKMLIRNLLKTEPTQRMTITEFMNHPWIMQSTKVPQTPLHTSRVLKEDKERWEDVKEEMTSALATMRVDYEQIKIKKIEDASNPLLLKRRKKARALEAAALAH
Sequence of FGFR1(h) (P11362 22-822): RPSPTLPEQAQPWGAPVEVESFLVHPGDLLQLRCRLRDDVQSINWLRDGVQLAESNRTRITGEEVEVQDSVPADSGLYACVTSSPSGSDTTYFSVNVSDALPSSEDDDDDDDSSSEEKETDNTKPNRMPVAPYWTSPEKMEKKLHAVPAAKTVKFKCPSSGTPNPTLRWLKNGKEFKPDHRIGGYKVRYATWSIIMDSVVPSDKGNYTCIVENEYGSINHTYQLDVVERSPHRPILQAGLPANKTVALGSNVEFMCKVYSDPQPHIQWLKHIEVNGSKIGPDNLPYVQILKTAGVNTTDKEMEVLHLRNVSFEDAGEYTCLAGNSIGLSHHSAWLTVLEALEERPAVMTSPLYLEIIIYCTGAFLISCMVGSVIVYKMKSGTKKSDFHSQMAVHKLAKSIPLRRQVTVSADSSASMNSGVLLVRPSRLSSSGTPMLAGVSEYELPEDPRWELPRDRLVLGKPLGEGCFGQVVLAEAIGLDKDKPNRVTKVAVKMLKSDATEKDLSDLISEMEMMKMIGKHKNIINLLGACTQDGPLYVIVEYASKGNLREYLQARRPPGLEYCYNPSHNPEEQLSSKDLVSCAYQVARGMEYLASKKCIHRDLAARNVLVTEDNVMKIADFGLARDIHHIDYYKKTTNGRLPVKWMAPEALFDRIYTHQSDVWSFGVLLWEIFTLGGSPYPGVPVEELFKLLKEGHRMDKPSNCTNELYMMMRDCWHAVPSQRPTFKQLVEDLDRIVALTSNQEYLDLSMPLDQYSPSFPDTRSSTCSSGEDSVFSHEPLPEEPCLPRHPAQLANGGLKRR

| inhibition at 1 µM (JNK3(h)) [%] | inhibition at 1 µM (CaMKIIγ(h)) [%] | inhibition at 1 µM (Flt3(h)) [%] | inhibition at 1 µM (CaMKIIδ(h)) [%] | inhibition at 1 µM (TAO1(h)) [%] | inhibition at 1 µM (Arg(h)) [%] | inhibition at 1 µM (Abl(h)) [%] | inhibition at 1 µM (Fes(h)) [%] | inhibition at 1 µM (FGFR3(h)) [%] | inhibition at 1 µM (FGFR1(h)) [%] | inhibition at 1 µM (ROCK-I(h)) [%] | inhibition at 1 µM (MAPKAP-K2(h)) [%] | inhibition at 1 µM (CDK5/p25(h)) [%] | SMILES |
| --- | --- | --- | --- | --- | --- | --- | --- | --- | --- | --- | --- | --- | --- |
| 86 | 84 | 46 | 61 | 16 | 76 | 44 | 50 | 41 | 64 | 28 | -3 | 96 | Nc1n[nH]c2ccc(-c3ccnc4[nH]c(-c5cccc(OCc6ccccc6)c5)cc34)cc12 [Compound 5r [SU1261]] |
| 62 | 46 | 36 | 37 | 5 | 24 | 15 | -31 | 0 | -4 | 10 | 1 | 92 | Nc1n[nH]c2ccc(-c3ccnc4[nH]c(-c5ccnc(OCc6ccccc6)c5)cc34)cc12 [Compound 6g [SU1349]] |
| 99 | 93 | 102 | 80 | 73 | 96 | 86 | 80 | 77 | 84 | 13 | 38 | 101 | Nc1n[nH]c2ccc(-c3ccnc4[nH]c(-c5ccccc5)cc34)cc12 [Compound 4] |
